Measured values published in US4568490A, “Aminopropylaminobleomycin derivatives and process for preparation thereof” (Zaidan Hojin Biseibutsu Kagaku Kenkyu Kai, priority 1981, dated 1986).

Columns and labels:
ICR strain mice = test: Pulmonary toxicity (pulmonary fibrosis) in mice, intraperitoneal injection; assay type: in vivo; conditions: 5 mg/kg i.p. once a day for 10 days; for Grade of pulmonary fibrosis, % / Incidence of pulmonary fibrosis, % / Incidence: number of mice suffering from pulmonary fibrosis / Grade: total score of pulmonary fibrosis/total number of test animal: autopsy after 5 weeks; for Incidence: number of mice suffering from pulmonary fibrosis: affected/total mice; for Grade: total score of pulmonary fibrosis/total number of test animal: score 0-6 points; for Grade of pulmonary fibrosis, Ratio / Incidence of pulmonary fibrosis, Ratio: reference of the ratio not stated
How it was run: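 Male ICR mice, 15 weeks old, 9 per group, received 5 mg/kg intraperitoneally once daily for 10 days. They were autopsied after 5 weeks' observation for pulmonary fibrosis incidence and grade: 1, alveolar exudate/septal fibrosis-like change; 2, fibrosis in several areas; 4, scattered fibrosis; 6, fibrosis over >2/3 of area.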

Hela S3 cells = test: Growth inhibitory activity against Hela S3 cells; assay type: cell-based; conditions: Cu-free form; Hela S3, 3 days incubation with compound
Protocol: The percentage growth inhibition was calculated using the equation: […] wherein A is the ultimate number of cells on the third day from the addition of a test sample, B is the ultimate number of cells in the control (without the addition of test sample), and C is the number of cells on the day of addition of the test sample.

[1] = tested on: Lymphocytic leukemia P-388; test: In vivo antitumor activity, murine lymphocytic leukemia P-388; conditions: BDF1-SLC mice, i.p. transplant, once daily for 9 days, 30 days observation; T/C more than 130 effective
Protocol: The following data with respect to the testing of a group of the presently claimed substances in vivo according to a standard test method involving murine lymphocytic leukemia P-388 is presented to lend further assurance as to the utility of the compounds as inhibitors of mammalian tumors.
Lymphocytic leukemia P-388 cells (1×10^5 /0.2 ml) were transplanted intraperitoneally into male BDF1 -SLC mice (5 mice/group). Each of the compounds of this invention was diluted with physiological saline to various concentrations. Each dilution was administered at a dose of 0.1 ml/10 g of body weight once daily for 9 days, starting on the day after the day of the transplantation. The mice of the control group were administered physiological saline.
The average number of days that the group receiving the compound of this invention survived was calculated. The figure obtained was divided by the average number of survival days for the control group, and was multiplied by 100 (T/C (%)).
T/C value more than 130 was considered to be effective.

[2] = tested on: Mycobacterium smegmatis ATCC 607; test: Antimicrobial activity, agar plate-cylinder method; assay type: cell-based; conditions: Cu-free form; bleomycin A2 (Cu-free form) standard assumed 1,000 mcg/mg
Protocol: (§1) The activity was assayed against the above test microorganisms by the method of agar plate-cylinder, assuming the potency of bleomycin A2 (Cu-free form), used as standard, to be 1,000 mcg/mg.

Bacillus subtilis = test: Antimicrobial activity, agar plate-cylinder method; assay type: cell-based; conditions: Cu-free form; bleomycin A2 (Cu-free form) standard assumed 1,000 mcg/mg
Protocol: (1) Antimicrobial activity against Mycobacterium smegmatis ATCC 697 and Bacillus subtilis.
as §1

SMILES | Grade of pulmonary fibrosis, % (ICR strain mice) [%] | Incidence of pulmonary fibrosis, % (ICR strain mice) [%] | Incidence: number of mice suffering from pulmonary fibrosis (ICR strain mice) | Grade: total score of pulmonary fibrosis/total number of test animal (ICR strain mice) | Grade of pulmonary fibrosis, Ratio (ICR strain mice) | Incidence of pulmonary fibrosis, Ratio (ICR strain mice) | 50% growth inhibition concentration (ID50) of Cu--free compound against cultured Hela cell (Hela S3 cells) [µg/mL] | Max. T/C on Mouse Lymphocytic Leukemia P 388 [1] [%] | Antimicrobial potency of Cu--free compound, against Mycobacterium smegmatis ATCC 607 [2] [mcg potency per mg] | Antimicrobial potency of Cu--free compound, against Bacillus subtilis (Bacillus subtilis) [mcg potency per mg]
Cc1c(N)nc(C(CC(N)=O)NCC(N)C(N)=O)nc1C(=O)NC(C(=O)NC(C)C(O)C(C)C(=O)NC(C(=O)NCCc1nc(-c2nc(C(=O)NCCC[N+](C)(C)CCC[N+](C)(C)CCCNCC3CCCCCCC3)cs2)cs1)C(C)O)C(OC1OC(CO)C(O)C(O)C1OC1OC(CO)C(O)C(OC(N)=O)C1O)c1cnc[nH]1 (centres unmarked) [Compound No. 42, 3-{N,N--Dimethyl-N--[3'-(N,N--dimethyl-N--(3"-cyclooctylmethylaminopropyl)amino)propyl]amino}propylaminoBLM] | 0 | 0 | 0/9 | 0/27 | 0.00 | 0.00 | 0.51 | 177 | 26000 | 14600
Cc1c(N)nc(C(CC(N)=O)NCC(N)C(N)=O)nc1C(=O)NC(C(=O)NC(C)C(O)C(C)C(=O)NC(C(=O)NCCc1nc(-c2nc(C(=O)NCCC[N+](C)(C)CCCNCC3CCCCCCC3)cs2)cs1)C(C)O)C(OC1OC(CO)C(O)C(O)C1OC1OC(CO)C(O)C(OC(N)=O)C1O)c1cnc[nH]1 (centres unmarked) [compound 36, 3-{N,N--Dimethyl-N--[3'-(cyclooctylmethylamino)propyl]amino}propylaminoBLM] | – | – | – | – | – | – | 0.29 | 150 | 21840 | 20000
CC[N+](CC)(CCCNCCc1ccc(Cl)cc1)CCCNC(=O)c1csc(-c2csc(CCNC(=O)C(NC(=O)C(C)C(O)C(C)NC(=O)C(NC(=O)c3nc(C(CC(N)=O)NCC(N)C(N)=O)nc(N)c3C)C(OC3OC(CO)C(O)C(O)C3OC3OC(CO)C(O)C(OC(N)=O)C3O)c3cnc[nH]3)C(C)O)n2)n1 (centres unmarked) [compound 46, 3-{N,N--Diethyl-N--[3'-(2"-p-chlorophenylethylamino)propyl]amino}propylaminoBLM] | 0 | 0 | 0/9 | 0/27 | 0.00 | 0.00 | 0.52 | 150 | 17480 | 13310
Cc1c(N)nc(C(CC(N)=O)NCC(N)C(N)=O)nc1C(=O)NC(C(=O)NC(C)C(O)C(C)C(=O)NC(C(=O)NCCc1nc(-c2nc(C(=O)NCCCN3CCN(CCCNCC4CCCCCCC4)CC3)cs2)cs1)C(C)O)C(OC1OC(CO)C(O)C(O)C1OC1OC(CO)C(O)C(OC(N)=O)C1O)c1cnc[nH]1 (stereo not drawn) [compound 45, 3-[4-(3-Cyclooctylmethylaminopropyl)piperazin-l-yl]propylaminoBLM] | 0 | 0 | 0/9 | 0/27 | 0.00 | 0.00 | 0.81 | 163 | 43000 | 15100
Cc1c(N)nc(C(CC(N)=O)NCC(N)C(N)=O)nc1C(=O)NC(C(=O)NC(C)C(O)C(C)C(=O)NC(C(=O)NCCc1nc(-c2nc(C(=O)NCCCN(C)CCCNCc3c4ccccc4cc4ccccc34)cs2)cs1)C(C)O)C(OC1OC(CO)C(O)C(O)C1OC1OC(CO)C(O)C(OC(N)=O)C1O)c1cnc[nH]1 (centres unmarked) [compound 21, 3-{N--Methyl-N--[3'-(9-anthramethylamino)propyl]amino}propylaminoBLM] | – | – | – | – | – | – | 0.80 | 148 | 13250 | 4504
Cc1c(N)nc(C(CC(N)=O)NCC(N)C(N)=O)nc1C(=O)NC(C(=O)NC(C)C(O)C(C)C(=O)NC(C(=O)NCCc1nc(-c2nc(C(=O)NCCCN(CCCN(Cc3ccccc3)Cc3ccccc3)Cc3ccccc3)cs2)cs1)C(C)O)C(OC1OC(CO)C(O)C(O)C1OC1OC(CO)C(O)C(OC(N)=O)C1O)c1cnc[nH]1 (centres unmarked) [Compound No. 40, 3-{N--benzyl-N--[3'-(dibenzylamino)propyl]amino}propylaminoBLM] | – | – | – | – | – | – | 1.90 | 154 | 4450 | 479
Cc1c(N)nc(C(CC(N)=O)NCC(N)C(N)=O)nc1C(=O)NC(C(=O)NC(C)C(O)C(C)C(=O)NC(C(=O)NCCc1nc(-c2nc(C(=O)NCCCN(C)CCCNCC3CCCCCCC3)cs2)cs1)C(C)O)C(OC1OC(CO)C(O)C(O)C1OC1OC(CO)C(O)C(OC(N)=O)C1O)c1cnc[nH]1.Cl.Cl.Cl (centres unmarked) [Compound No. 22] | 0 | 0 | 0/9 | 0/27 | 0.000 | 0.00 | 0.45 | 174 | 22860 | 12300
Cc1c(N)nc(C(CC(N)=O)NCC(N)C(N)=O)nc1C(=O)NC(C(=O)NC(C)C(O)C(C)C(=O)NC(C(=O)NCCc1nc(-c2nc(C(=O)NCCC[N+](C)(C)CCC[N+](C)(C)CCCN(Cc3ccccc3)Cc3ccccc3)cs2)cs1)C(C)O)C(OC1OC(CO)C(O)C(O)C1OC1OC(CO)C(O)C(OC(N)=O)C1O)c1cnc[nH]1 (centres unmarked) [Compound No. 41, 3-{N,N--Dimethyl-N--[3'-(N,N--dimethyl-N--(3"-dibenzylaminopropyl)amino)propyl]amino}propylaminoBLM] | 0 | 0 | 0/9 | 0/27 | 0.00 | 0.00 | 0.66 | 184 | 16000 | 7100
